The assay has as its target T1, hNPY1R (Homo sapiens, UniProt P25929).
T1 construct: SK-N-MC cells endogenously expressing the NPY1R receptor; endogenous in cells; host or cells: SK-N-MC cells (crude membrane fractions)
T1 sequence (P25929 1-384): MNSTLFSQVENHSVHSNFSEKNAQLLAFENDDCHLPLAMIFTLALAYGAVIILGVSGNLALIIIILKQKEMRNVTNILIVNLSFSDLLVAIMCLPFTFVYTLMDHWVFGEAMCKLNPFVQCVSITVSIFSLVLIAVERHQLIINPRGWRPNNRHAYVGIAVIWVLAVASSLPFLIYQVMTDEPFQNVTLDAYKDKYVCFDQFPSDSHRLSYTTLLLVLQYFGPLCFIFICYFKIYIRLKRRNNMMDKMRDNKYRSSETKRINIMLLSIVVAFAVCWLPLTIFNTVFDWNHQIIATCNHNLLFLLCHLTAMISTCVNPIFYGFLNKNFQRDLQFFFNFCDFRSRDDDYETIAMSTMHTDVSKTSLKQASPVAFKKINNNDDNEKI
Kind of assay: NPY1R binding assay: SK-N-MC membranes, [125I]-Peptide YY (human) competition. The note with it: SK-N-MC membranes. As to the method:
Crude membrane fractions are prepared from SK-N-MC cells endogenously expressing the NPY1R receptor. The cells are grown to 85-100% confluence on standard tissue culture dishes in Eagle's Minimum Essential Medium supplemented with 10% dialyzed FBS. To prepare membranes, cells are scraped and collected in 1× Dulbecco's phosphate buffered saline and then pelleted at 1000 RPM's. The cell pellet is reconstituted in membrane preparation buffer (20 mM HEPES, 6 mM MgCl2 and 1 mM EGTA, protease inhibitor tablets, pH 7.4) and placed in a cell disruption vessel at 1000 PSI for 30 minutes on ice. The pressurized contents are then released and spun down at 1000 RPMs and the supernatant is collected and further centrifuged at 15,000 RPMs to pellet the membranes. The membrane pellet is resuspended in membrane preparation buffer, snap frozen and stored at −80° C. for later use.
[…] Assay contents are then filtered through unifilter GF/C microplates and washed with 9×400 μl of cold wash buffer (25 mM HEPES, 5 mM MgCl2, 1 mM CaCl2), 500 mM NaCl, 0.1% Tween-20, pH 7.4). Assay plates are read using a Top Count NXT and Ki values for compounds are determined using a GraphPad Prism 6 non-linear regression analysis.

Setting [1] is: data obtained after 120 minutes at rt, [125I]-Peptide YY, read-out: hNPY.R binding Ki* ††.
The mark [2] stands for this setting: data obtained after 60 minutes at 37° C., [125I]-Peptide YY 0.05 nM, read-out: hNPY1R binding Ki* †.

Read-outs that look alike come from different tables or passages of the source. Bounds are passed on as bounds.

The Ki is a dissociation constant, usually derived from enzyme kinetics or from competition with a known ligand.

For `CCC(=O)NCCNC(=O)/N=C(/N)NCCC[C@@H](NC(=O)C(c1ccccc1)c1cccc(OCCCCNC(=O)NCCONC(=O)CN2CCN(CC(=O)O)CCN(CC(=O)O)CCN(CC(=O)O)CC2)c1)C(=O)NCc1c(F)cc(O)cc1F` (single isomer, unassigned) [Compound 168], under setting [1], the Ki is below 10 nM.
Same read-out and setting: in the case of `CCC(=O)NCCNC(=O)/N=C(/N)NCCC[C@@H](NC(=O)C(c1ccccc1)c1ccc(NCCNC(=O)[C@H](N)CCCNC(=O)CN2CCN(CC(=O)O)CCN(CC(=O)O)CCN(CC(=O)O)CC2)cc1)C(=O)NCc1ccc(O)cc1` (single isomer, unassigned) [Compound 143B] it was below 10 nM; in that of `CCC(=O)NCCNC(=O)/N=C(/N)NCCC[C@@H](NC(=O)C(c1ccccc1)c1ccc(NCC(=O)N(C)CCCN(C)CCCN(C)C(=O)CN2CCN(CC(=O)O)CCN(CC(=O)O)CCN(CC(=O)O)CC2)cc1)C(=O)NCc1ccc(O)cc1` (single isomer, unassigned) [Compound 139B], below 10 nM.
The same measure, in the same setting: in the case of `CCC(=O)NCCNC(=O)/N=C(/N)NCCC[C@@H](NC(=O)C(c1ccccc1)c1ccc(NCCCNc2c(NCCCCCCNC(=O)CN3CCN(CC(=O)O)CCN(CC(=O)O)CCN(CC(=O)O)CC3)c(=O)c2=O)cc1)C(=O)NCc1ccc(O)cc1` (single isomer, unassigned) [Compound 156] it was below 10 nM; in that of `CCC(=O)NCCNC(=O)/N=C(/N)NCCC[C@@H](NC(=O)C(c1ccccc1)c1ccc(NCCCNC(=O)[C@H]2CC[C@H](CNC(=O)CN3CCN(CC(=O)O)CCN(CC(=O)O)CCN(CC(=O)O)CC3)CC2)cc1)C(=O)NCc1ccc(O)cc1` (stereo partly drawn) [Compound 158, 2,2′,2″-(10-(2-((((1R,4r)-4-((3-((4-((4R,Z)-9-amino-4-((4-hydroxybenzyl)carbamoyl)-2,11,16-trioxo-1-phenyl-3,8,10,12,15-pentaazaoctadec-9-en-1-yl)phenyl)amino)propyl)carbamoyl)cyclohexyl)methyl)amino)-2-oxoethyl)-1,4,7,10-tetraazacyclododecane-1,4,7-triyl)triacetic acid], below 10 nM.
With `CCCCCCCCCCCCCCCC(=O)N[C@@H](CCC(=O)N[C@@H](CCCCNC(=O)CN1CCN(CC(=O)O)CCN(CC(=O)O)CCN(CC(=O)O)CC1)C(=O)NCCCCOc1cccc(C(C(=O)N[C@H](CCCN/C(N)=N\C(=O)NCCNC(=O)CC)C(=O)NCc2ccc(O)cc2)c2ccccc2)c1)C(=O)O` (stereo partly drawn) [Compound 122, (2S)-4-{[(1S)-1-({4-[3-({[(1R)-4-{[(Z)-amino({[(2-propanamidoethyl)-carbamoyl]imino})methyl]amino}-1-{[(4-hydroxyphenyl)methyl]carbamoyl}butyl]-carbamoyl}(phenyl)methyl)phenoxy]butyl}carbamoyl)-5-{2-[4,7,10-tris(carboxymethyl)-1,4,7,10-tetraazacyclododecan-1-yl]acetamido}pentyl]carbamoyl}-2-hexadecanamidobutanoic acid], the Ki under setting [1] was below 10 nM.
For `CCC(=O)NCCNC(=O)/N=C(/N)NCCC[C@@H](NC(=O)C(c1ccccc1)c1cccc(OCCCCNC(=O)C[C@H]2NC(=O)[C@@H](CCCNC(=O)CN3CCN(CC(=O)O)CCN(CC(=O)O)CCN(CC(=O)O)CC3)NC2=O)c1)C(=O)NCc1c(F)cc(O)cc1F` (single isomer, unassigned) [Compound 164B], the Ki under setting [1] was below 10 nM.
On the same count and under the same terms, in the case of `CCNC(=O)/N=C(/N)NCCC[C@@H](NC(=O)[C@@H](c1ccccc1)c1ccc(NCCCNC(=O)[C@H](N)CCCCNC(=O)CN2CCN(CC(=O)O)CCN(CC(=O)O)CCN(CC(=O)O)CC2)cc1)C(=O)NCc1ccc(O)cc1` (single isomer, unassigned) [Compound 144A] it was below 10 nM.
As to `CCC(=O)NCCNC(=O)/N=C(/N)NCCC[C@@H](NC(=O)C(c1ccccc1)c1cccc(OCCOCCOCCOCCOCCNC(=O)CN2CCN(CC(=O)O)CCN(CC(=O)O)CCN(CC(=O)O)CC2)c1)C(=O)NCc1ccc(CNC(N)=O)cc1` (single isomer, unassigned) [Compound 114B], under setting [2], the Ki was 10 to 100 nM.
As for `CCC(=O)NCCNC(=O)/N=C(/N)NCCC[C@@H](NC(=O)C(c1ccccc1)c1cccc(OCCCCNC(=O)[C@@H](Cc2ccc(-c3ccccc3)cc2)NC(=O)CCNC(=O)CN2CCN(CC(=O)O)CCN(CC(=O)O)CCN(CC(=O)O)CC2)c1)C(=O)NCc1ccc(O)cc1` (stereo partly drawn) [Compound 149, 2,2′,2″-(10-(2-((3-(((2R)-3-([1,1′-biphenyl]-4-yl)-1-((4-(3-((4R,Z)-9-amino-4-((4-hydroxybenzyl)carbamoyl)-2,11,16-trioxo-1-phenyl-3,8,10,12,15-pentaazaoctadec-9-en-1-yl)phenoxy)butyl)amino)-1-oxopropan-2-yl)amino)-3-oxopropyl)amino)-2-oxoethyl)-1,4,7,10-tetraazacyclododecane-1,4,7-triyl)triacetic acid], the Ki under setting [1] was below 10 nM.
With `CCC(=O)NCCNC(=O)/N=C(/N)NCCC[C@@H](NC(=O)C(c1ccccc1)c1ccc(NCCCNC(=O)CCOCCOCCNC(=O)CN2CCN(CC(=O)O)CCN(CC(=O)O)CCN(CC(=O)O)CC2)cc1)C(=O)NCc1ccc(O)cc1` (single isomer, unassigned) [Compound 103B], the Ki under setting [2] was below 10 nM.
Same read-out and setting: the figure for `CCC(=O)NCCNC(=O)/N=C(/N)NCCC[C@@H](NC(=O)C(c1ccccc1)c1cccc(OCCOCCOCCOCCNC(=O)CN2CCN(CC(=O)O)CCN(CC(=O)O)CCN(CC(=O)O)CC2)c1)C(=O)NCc1ccc(O)cc1` (stereo partly drawn) [Compound 104, 2,2′,2″-(10-(14-(3-((4R,Z)-9-amino-4-((4-hydroxybenzyl)carbamoyl)-2,11,16-trioxo-1-phenyl-3,8,10,12,15-pentaazaoctadec-9-en-1-yl)phenoxy)-2-oxo-6,9,12-trioxa-3-azatetradecyl)-1,4,7,10-tetraazacyclododecane-1,4,7-triyl)triacetic acid] is below 10 nM.
`CCC(=O)NCCNC(=O)/N=C(/N)NCCC[C@@H](NC(=O)C(c1ccccc1)c1ccc(NCCCNC(=O)NOCCNC(=O)CN2CCN(CC(=O)O)CCN(CC(=O)O)CCN(CC(=O)O)CC2)cc1)C(=O)NCc1ccc(O)cc1` (single isomer, unassigned) [Compound 160]: the Ki under setting [1] was in the range of 10 to 100 nM.
In the case of `CCC(=O)NCCNC(=O)/N=C(/N)NCCC[C@@H](NC(=O)C(c1ccccc1)c1ccc(NCCCNc2c(NCCNC(=O)CN3CCN(CC(=O)O)CCN(CC(=O)O)CCN(CC(=O)O)CC3)c(=O)c2=O)cc1)C(=O)NCc1ccc(O)cc1` (single isomer, unassigned) [Compound 124B], the Ki reads like this: under setting [2], below 10 nM; under setting [1], below 10 nM.
As for `CCC(=O)NCCNC(=O)/N=C(/N)NCCC[C@@H](NC(=O)C(c1ccccc1)c1cccc(OCCCCNC(=O)[C@@H](CO)NC(=O)CCNC(=O)CN2CCN(CC(=O)O)CCN(CC(=O)O)CCN(CC(=O)O)CC2)c1)C(=O)NCc1c(F)cc(O)cc1F` (single isomer, unassigned) [Compound 165B], under setting [1], the Ki was below 10 nM.
`CCC(=O)NCCNC(=O)/N=C(/N)NCCC[C@@H](NC(=O)C(c1ccccc1)c1ccc(NCC(=O)N(C)CCCN(C)CCCN(C)C(=O)CN2CCN(CC(=O)O)CCN(CC(=O)O)CCN(CC(=O)O)CC2)cc1)C(=O)NCc1ccc(O)cc1` (single isomer, unassigned) [Compound 139A]: the Ki under setting [1] was below 10 nM.
On the same count and under the same terms, in the case of `CCNC(=O)/N=C(/N)NCCC[C@@H](NC(=O)C(c1ccccc1)c1ccc(NCCCNC(=O)[C@H](N)CCCNC(=O)[C@@H](Cc2ccc(-c3ccccc3)cc2)NC(=O)CN2CCN(CC(=O)O)CCN(CC(=O)O)CCN(CC(=O)O)CC2)cc1)C(=O)NCc1ccc(O)cc1` (single isomer, unassigned) [Compound 151] it was below 10 nM; in that of `CCNC(=O)/N=C(/N)NCCC[C@@H](NC(=O)C(c1ccccc1)c1ccc(NCCCNC(=O)[C@@H](CCCNC(=N)N)NC(=O)[C@@H](Cc2ccc(-c3ccccc3)cc2)NC(=O)CN2CCN(CC(=O)O)CCN(CC(=O)O)CCN(CC(=O)O)CC2)cc1)C(=O)NCc1ccc(O)cc1` (single isomer, unassigned) [Compound 152], below 10 nM.
`CCC(=O)NCCNC(=O)/N=C(/N)NCCC[C@@H](NC(=O)C(c1ccccc1)c1cccc(OCCCCNC(=O)CCC(NC(=O)CN2CCN(CC(=O)O)CCN(CC(=O)O)CCN(CC(=O)O)CC2)C(=O)O)c1)C(=O)NCc1ccc(O)cc1` (single isomer, unassigned) [Compound 110A]: the Ki under setting [2] is 10 to 100 nM.
With `CCC(=O)NCCNC(=O)/N=C(/N)NCCC[C@@H](NC(=O)C(c1ccccc1)c1ccc(NCCCNC(=O)[C@H](N)CCCNC(=O)CN2CCN(CC(=O)O)CCN(CC(=O)O)CCN(CC(=O)O)CC2)cc1)C(=O)NCc1ccc(O)cc1` (single isomer, unassigned) [Compound 135A], the Ki under setting [1] is below 10 nM.

Source of the values: patent publication US20240226343A1, “NEUROPEPTIDE Y1 RECEPTOR (NPY1R) TARGETED THERAPEUTICS AND USES THEREOF” (RADIONETICS ONCOLOGY, INC., priority 2022, published 2024).
